Among the data in ChEMBL document CHEMBL3392982, “Synthesis and membrane-protective activity of novel derivatives of α-mangostin at the C-4 position” (Bioorg Med Chem Lett, 2015) are Activity and hemolysis values, retold here.

Each structure is given as a SMILES string. Calls of active or inactive are those of the source. The calls are words filed in the database; no cut-off is given here.

Data set [1] deals with Erythrocyte. Description: Inhibition of H2O2-induced oxyhemoglobin oxidation in mouse erythrocytes assessed as metHb/oxyHb ratio level at 10 uM pre-incubated for 30 mins before H2O2 injection and measured 5 hrs post H2O2 injection. It counts as functional. Set-up: scale not given: the % may be the effect or the level left.
Data set [2] has as its system Erythrocyte. Kind of data set: Membrane-protective activity in mouse erythrocytes assessed as inhibition of H2O2-induced hemolysis pre-incubated for 30 mins before H2O2 injection and measured 5 hrs post H2O2 injection. It counts as functional, cell-based.
Data set [3] relates to Erythrocyte. Kind of data set: Inhibition of H2O2-induced oxyhemoglobin oxidation in mouse erythrocytes assessed as ferrylHb/oxyHb ratio level at 10 uM pre-incubated for 30 mins before H2O2 injection and measured 5 hrs post H2O2 injection. Further details: scale not given: the % may be the effect or the level left. It is filed as functional.
Data set [4] in a line: Toxicity in H2O2-induced mouse erythrocytes assessed as induction of hemolysis at 30 uM pre-incubated for 30 mins before H2O2 injection and measured 5 hrs post H2O2 injection. It counts as cell-based. As to conditions: erythrocyte.
Data set [5] concerns Erythrocyte. Kind of data set: Inhibition of H2O2-induced oxyhemoglobin oxidation in mouse erythrocytes assessed as ferrylHb/oxyHb ratio level at 30 uM pre-incubated for 30 mins before H2O2 injection and measured 5 hrs post H2O2 injection. Set-up: scale not given: the % may be the effect or the level left. It is filed as functional.
Data set [6] deals with Erythrocyte. Kind of data set: Inhibition of H2O2-induced oxyhemoglobin oxidation in mouse erythrocytes assessed as metHb/oxyHb ratio level at 30 uM pre-incubated for 30 mins before H2O2 injection and measured 5 hrs post H2O2 injection. It is filed as functional. Further details: scale not given: the % may be the effect or the level left.
The test system of data set [7] is Erythrocyte. Description: Inhibition of H2O2-induced oxyhemoglobin oxidation in mouse erythrocytes assessed as metHb/oxyHb ratio level at 1 uM pre-incubated for 30 mins before H2O2 injection and measured 5 hrs post H2O2 injection. It counts as functional. Set-up: scale not given: the % may be the effect or the level left.
Data set [8] in a line: Toxicity in mouse erythrocytes assessed as induction of hemolysis at 10 and 30 uM incubated for 5 hrs. As to conditions: erythrocyte. It counts as cell-based.
Data set [9] concerns Erythrocyte. Kind of data set: Inhibition of H2O2-induced oxyhemoglobin oxidation in mouse erythrocytes assessed as ferrylHb/oxyHb ratio level at 1 uM pre-incubated for 30 mins before H2O2 injection and measured 5 hrs post H2O2 injection. It is filed as functional. Set-up: scale not given: the % may be the effect or the level left.
For data set [10], the system named is Erythrocyte. Kind of data set: Antioxidant activity in mouse erythrocytes assessed as inhibition of H2O2-induced secondary lipid peroxidation at 1 to 30 uM pre-incubated for 30 mins before H2O2 injection and measured 4 hrs post H2O2 injection by TBARS detection based spectrophotometry. It is filed as functional, cell-based.
A short description of data set [11]: Toxicity in rabbit erythrocytes assessed as induction of cell death at 7.8 to 15.6 uM within 1 hr. It is filed as cell-based, Oryctolagus cuniculus, Erythrocyte. As to conditions: read-out: Activity.
Data set [12] in a line: Toxicity in rabbit erythrocytes assessed as induction of hemolysis at 10 uM within 1 hr. It counts as cell-based, Oryctolagus cuniculus, Erythrocyte. The following applies: read-out: Activity.
For data set [13], the system named is Erythrocyte. Kind of data set: Membrane-protective activity in mouse erythrocytes assessed as inhibition of H2O2-induced hemolysis at 10 to 30 uM pre-incubated for 30 mins before H2O2 injection and measured 5 hrs post H2O2 injection. It counts as functional, cell-based.
Data set [14] has as its system Erythrocyte. Description: Membrane-protective activity in mouse erythrocytes assessed as inhibition of H2O2-induced hemolysis at 30 uM pre-incubated for 30 mins before H2O2 injection and measured 5 hrs post H2O2 injection. It counts as functional, cell-based.
Data set [15] concerns Erythrocyte. Description: Membrane-protective activity in mouse erythrocytes assessed as inhibition of H2O2-induced hemolysis at 1 uM pre-incubated for 30 mins before H2O2 injection and measured 5 hrs post H2O2 injection. It counts as functional, cell-based.

With `COc1c(O)cc2oc3c(CN(C)C)c(O)c(CC=C(C)C)c(O)c3c(=O)c2c1CC=C(C)C`, the Activity with Erythrocyte [1] was 37.5%; in the data set with Erythrocyte [2], “Dose-dependent effect”; with Erythrocyte [3], 35.5%; in data set [4], “Toxic”; with Erythrocyte [5] it was 162.3%; in the data set with Erythrocyte [6], 196.4%. Further, the Activity with Erythrocyte [7] is 65.8%; in data set [8] it was “Non-toxic”; with Erythrocyte [9], 67.4%. For the same compound, in the data set with Erythrocyte [10], the outcome was Active.
As for `COc1c(O)cc2oc3cc(O)c(CC=C(C)C)c(O)c3c(=O)c2c1CC=C(C)C` [MANGOSTIN], the Activity with Erythrocyte [1] was 45.5%; in the data set with Erythrocyte [2] it was “Dose-dependent effect”; in the data set on Erythrocyte [3] it was 39.5%; in data set [4], “Toxic”; with Erythrocyte [7] it was 44.7%; in data set [8], “Toxic”. Further, in the data set on Erythrocyte [9], the Activity is recorded as 55.3%. In data set [11], the hemolysis at 1 h, up to 15.6 µM is 10.5%. The hemolysis at 1 h, 10 µM in [12] is 10.1%. In the data set on Erythrocyte [10], the result was Active.
`COc1c(O)cc2oc3c(CN4CCCCC4)c(O)c(CC=C(C)C)c(O)c3c(=O)c2c1CC=C(C)C`: the Activity in the data set with Erythrocyte [1] is given as 40.7%; with Erythrocyte [3], 32.3%; with Erythrocyte [5], 18.5%; with Erythrocyte [6], 24%; in the data set with Erythrocyte [7], 56.9%; in [8], “Non-toxic”. Also, the Activity with Erythrocyte [9] was 58%. Also, the result with Erythrocyte [13] and with Erythrocyte [10] was Active.
`COc1c(O)cc2oc3c(Cc4cc(C(C)(C)C)c(O)c(C(C)(C)C)c4)c(O)c(CC=C(C)C)c(O)c3c(=O)c2c1CC=C(C)C`: the Activity in the data set with Erythrocyte [1] is on record as 63.8%; in the data set with Erythrocyte [3], 53.3%; in the data set on Erythrocyte [5] it was 22.5%; in the data set with Erythrocyte [6] it was 35.5%; in the data set on Erythrocyte [7], 98.4%; in data set [8], “Non-toxic”. Moreover, the Activity in the data set with Erythrocyte [9] stood at 81%. In addition, the result in the data set with Erythrocyte [14] and with Erythrocyte [10] was Active.
Take `COc1c(O)cc2oc3c(CN4CCOCC4)c(O)c(CC=C(C)C)c(O)c3c(=O)c2c1CC=C(C)C`: the Activity in the data set on Erythrocyte [1] was 42.7%; in the data set on Erythrocyte [3], 37.1%; in the data set with Erythrocyte [5] it was 25.2%; with Erythrocyte [6], 27.9%; in the data set on Erythrocyte [7], 112.5%; in [8] it was “Non-toxic”. Further, in the data set with Erythrocyte [9], the Activity was 91.8%. In addition, the result with Erythrocyte [13] and in the data set with Erythrocyte [10] was Active.
For the compound `COc1c(O)cc2oc3c(Cc4cc([C@H]5C[C@@H]6CC[C@@]5(C)C6(C)C)c(O)c([C@@H]5C[C@H]6CC[C@]5(C)C6(C)C)c4)c(O)c(CC=C(C)C)c(O)c3c(=O)c2c1CC=C(C)C`, the Activity is on record as 77.3% with Erythrocyte [1]; 70.9% in the data set on Erythrocyte [3]; 64.2% with Erythrocyte [5]; 105.6% in the data set with Erythrocyte [6]; 60.1% with Erythrocyte [7]; “Non-toxic” in data set [8]. Further, the Activity with Erythrocyte [9] is on record as 61.5%. Also, the result in the data set with Erythrocyte [15] and with Erythrocyte [10] was Active.
